In ChEMBL document CHEMBL6074661, “Structural Modification and Pharmacological Evaluation of (Thiadiazol-2-yl)pyrazines as Novel Piezo1 Agonists for the Intervention of Disuse Osteoporosis” (J Med Chem, 2024):
In brackets after ≈: the same amount, converted by molar mass. Activity calls are given as the source filed them. The rule behind the calls is not given here.

What was measured:
[1] = target: Piezo-type mechanosensitive ion channel component 1 (Mus musculus) (UniProt E2JF22); assay: Agonist activity at Piezo1 in mouse C3H 10T1/2 cells assessed as influx of calcium ions by measuring change in ratio of calcium fluorescence at 20 uM incubated for 2 hrs by Cal-bryte 520 AM dye based analysis relative to control; format: cell-based
[2] = target: T1, Piezo-type mechanosensitive ion channel component 1 (Homo sapiens, UniProt Q92508); assay: Potency index, ratio of Yoda1 EC50 to test compound EC50 for agonist activity at Piezo1 (unknown origin); details: filed as agonist
[3] = target: T2, Piezo-type mechanosensitive ion channel component 1 (Mus musculus, UniProt E2JF22); assay: Agonist activity at Piezo1 in mouse C3H 10T1/2 cells assessed as influx of calcium ions incubated for 2 hrs by Cal-bryte 520 AM dye based analysis; format: cell-based
Target sequence in this assay (E2JF22 whole entry): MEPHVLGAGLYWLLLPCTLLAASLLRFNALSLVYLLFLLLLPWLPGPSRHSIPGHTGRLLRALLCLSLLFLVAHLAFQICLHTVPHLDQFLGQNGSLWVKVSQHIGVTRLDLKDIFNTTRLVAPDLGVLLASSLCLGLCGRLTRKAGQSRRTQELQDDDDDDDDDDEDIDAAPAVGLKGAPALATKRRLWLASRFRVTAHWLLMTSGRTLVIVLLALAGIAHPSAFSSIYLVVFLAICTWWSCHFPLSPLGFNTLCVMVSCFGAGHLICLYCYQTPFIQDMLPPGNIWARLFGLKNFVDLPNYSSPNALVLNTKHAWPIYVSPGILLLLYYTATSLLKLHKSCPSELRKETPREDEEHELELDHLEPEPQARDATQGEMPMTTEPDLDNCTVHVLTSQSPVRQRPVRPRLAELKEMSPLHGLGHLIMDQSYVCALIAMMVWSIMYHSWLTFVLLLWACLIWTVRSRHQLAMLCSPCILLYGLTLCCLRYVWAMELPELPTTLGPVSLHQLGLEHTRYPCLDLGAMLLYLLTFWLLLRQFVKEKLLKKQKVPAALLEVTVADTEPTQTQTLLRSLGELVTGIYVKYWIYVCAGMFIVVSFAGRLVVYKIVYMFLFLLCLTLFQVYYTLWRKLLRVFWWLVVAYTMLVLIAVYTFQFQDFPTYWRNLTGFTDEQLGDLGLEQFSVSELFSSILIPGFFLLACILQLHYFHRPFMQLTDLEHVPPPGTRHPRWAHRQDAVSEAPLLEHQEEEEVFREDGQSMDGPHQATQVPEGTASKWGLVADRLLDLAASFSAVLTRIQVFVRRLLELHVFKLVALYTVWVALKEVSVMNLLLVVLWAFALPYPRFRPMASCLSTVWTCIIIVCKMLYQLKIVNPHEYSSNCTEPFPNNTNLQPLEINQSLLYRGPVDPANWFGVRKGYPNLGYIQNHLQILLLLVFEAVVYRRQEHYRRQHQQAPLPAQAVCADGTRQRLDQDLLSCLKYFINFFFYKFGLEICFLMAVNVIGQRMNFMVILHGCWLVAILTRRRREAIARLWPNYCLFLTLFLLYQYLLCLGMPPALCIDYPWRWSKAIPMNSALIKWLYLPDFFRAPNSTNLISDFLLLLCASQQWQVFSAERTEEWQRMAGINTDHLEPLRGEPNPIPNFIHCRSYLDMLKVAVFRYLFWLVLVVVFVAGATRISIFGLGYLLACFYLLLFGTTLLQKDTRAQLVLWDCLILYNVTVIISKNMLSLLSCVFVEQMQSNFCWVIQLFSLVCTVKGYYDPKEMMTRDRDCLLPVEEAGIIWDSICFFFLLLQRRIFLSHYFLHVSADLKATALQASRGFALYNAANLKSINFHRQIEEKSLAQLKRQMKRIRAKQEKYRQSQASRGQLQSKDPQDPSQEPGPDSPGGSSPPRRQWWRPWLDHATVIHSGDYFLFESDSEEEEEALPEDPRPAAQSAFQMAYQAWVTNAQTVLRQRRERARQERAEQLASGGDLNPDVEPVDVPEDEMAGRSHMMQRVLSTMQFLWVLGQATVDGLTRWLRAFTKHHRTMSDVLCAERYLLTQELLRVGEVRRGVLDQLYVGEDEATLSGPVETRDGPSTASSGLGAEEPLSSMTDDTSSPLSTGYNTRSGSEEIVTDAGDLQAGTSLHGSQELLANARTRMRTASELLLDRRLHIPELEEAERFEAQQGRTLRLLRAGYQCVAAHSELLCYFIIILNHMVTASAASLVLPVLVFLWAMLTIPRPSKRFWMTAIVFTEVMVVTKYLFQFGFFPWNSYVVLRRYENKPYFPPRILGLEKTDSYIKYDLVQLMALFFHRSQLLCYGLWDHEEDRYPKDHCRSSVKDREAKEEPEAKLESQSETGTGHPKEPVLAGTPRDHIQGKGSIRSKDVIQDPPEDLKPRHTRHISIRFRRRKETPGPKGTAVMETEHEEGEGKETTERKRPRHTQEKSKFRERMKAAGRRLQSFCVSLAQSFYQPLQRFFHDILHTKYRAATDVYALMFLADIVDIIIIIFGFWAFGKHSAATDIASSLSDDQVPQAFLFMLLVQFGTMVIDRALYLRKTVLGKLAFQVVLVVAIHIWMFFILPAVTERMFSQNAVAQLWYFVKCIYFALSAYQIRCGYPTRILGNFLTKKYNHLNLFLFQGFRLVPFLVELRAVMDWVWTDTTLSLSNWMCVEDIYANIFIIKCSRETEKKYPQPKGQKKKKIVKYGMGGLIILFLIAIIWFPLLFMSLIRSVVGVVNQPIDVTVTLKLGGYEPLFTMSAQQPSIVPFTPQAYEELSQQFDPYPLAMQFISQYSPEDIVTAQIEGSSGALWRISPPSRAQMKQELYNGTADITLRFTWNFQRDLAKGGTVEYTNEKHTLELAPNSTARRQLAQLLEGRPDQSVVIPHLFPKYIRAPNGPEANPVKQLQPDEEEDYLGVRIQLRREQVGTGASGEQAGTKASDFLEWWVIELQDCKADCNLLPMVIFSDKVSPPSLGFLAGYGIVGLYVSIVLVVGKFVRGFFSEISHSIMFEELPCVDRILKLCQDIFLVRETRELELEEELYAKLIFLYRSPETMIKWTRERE

[4] = Metabolic stability in mouse liver microsomes assessed as half life at 10 uM measured for 60 mins by LC-MS/MS analysis; format: ADME, Microsome
[5] = Metabolic stability in human liver microsomes assessed as half life at 10 uM measured for 60 mins by LC-MS/MS analysis; format: ADME, Microsome
[6] = Metabolic stability in dog liver microsomes assessed as half life at 10 uM measured for 60 mins by LC-MS/MS analysis; format: ADME, Canis lupus familiaris, Microsome
[7] = Metabolic stability in mouse liver microsomes assessed as intrinsic clearance at 10 uM measured for 60 mins by LC-MS/MS analysis; format: ADME, Microsome; details: read-out: CLH
[8] = Metabolic stability in human liver microsomes assessed as intrinsic clearance at 10 uM measured for 60 mins by LC-MS/MS analysis; format: ADME, Microsome; details: read-out: CLH
[9] = Metabolic stability in dog liver microsomes assessed as intrinsic clearance at 10 uM measured for 60 mins by LC-MS/MS analysis; format: ADME, Canis lupus familiaris, Microsome; details: read-out: CLH
[10] = Aqueous solubility of compound at pH 7.4 incubated for 10 mins by HPLC analysis; format: physicochemical; details: aqueous medium
[11] = Apparent permeability in MDCK cells; format: ADME, cell-based, Canis lupus familiaris; details: dog
[12] = Toxicity in hind-limb unloading Sprague-Dawley rat model assessed as change in liver function at 5 uM/kg, ip administered on day 1, 4, 7, 10, 13 and measured on day 14; format: organism-based; details: in vivo, 336 h, time 14 day
[13] = Toxicity in hind-limb unloading Sprague-Dawley rat model assessed as change in kidney function at 5 uM/kg, ip administered on day 1, 4, 7, 10, 13 and measured on day 14; format: organism-based; details: in vivo, 336 h, time 14 day
[14] = target: Piezo-type mechanosensitive ion channel component 1 (Mus musculus) (UniProt E2JF22); assay: Potency index, ratio of Yoda1 EC50 to test compound […] for agonist activity at Piezo1 in mouse C3H 10T1/2 cells assessed as influx of calcium ions incubated for 2 hrs by Cal-bryte 520 AM dye based analysis; format: cell-based; details: filed as agonist, tested as the 2H-labelled form
BMSC [15] = assay: Induction of osteogenesis in BMSC cells (unknown origin) assessed as increase in Runx2 mRNA level incubated for 3 days by RT-qPCR analysis; format: functional, cell-based; details: dose 3-5 µM, time 3.0 day, tested as the 2H-labelled form
BMSC [16] = assay: Induction of osteogenesis in BMSC cells (unknown origin) assessed as increase in Osx mRNA level at 5 uM incubated for 3 days by RT-qPCR analysis; format: functional, cell-based; details: time 3.0 day, tested as the 2H-labelled form
[17] = target: Piezo-type mechanosensitive ion channel component 1 (Rattus norvegicus) (UniProt Q0KL00); assay: Agonist activity at Piezo1 in rat BMSC cells assessed as increase in p-Erk level at 5 uM incubated for 5 mins by Western blot analysis; format: cell-based; details: filed as activator, tested as the 2H-labelled form
Rattus norvegicus [18] = assay: Inhibition of disuse osteoporosis in hind-limb unloading Sprague-Dawley rat model assessed as increase in bone volume fraction at 5 uM/kg, ip administered on day 1, 4, 7, 10, 13 and measured on day 14 by micro-CT analysis; format: functional, organism-based; details: time 14.0 day, tested as the 2H-labelled form
Rattus norvegicus [19] = assay: Inhibition of disuse osteoporosis in hind-limb unloading Sprague-Dawley rat model assessed as increase in trabecular number at 5 uM/kg, ip administered on day 1, 4, 7, 10, 13 and measured on day 14 by micro-CT analysis; format: functional, organism-based; details: time 14.0 day, tested as the 2H-labelled form
Rattus norvegicus [20] = assay: Inhibition of disuse osteoporosis in hind-limb unloading Sprague-Dawley rat model assessed as decrease in trabecular separation at 5 uM/kg, ip administered on day 1, 4, 7, 10, 13 and measured on day 14 by micro-CT analysis; format: functional, organism-based; details: time 14.0 day, tested as the 2H-labelled form
Rattus norvegicus [21] = assay: Induction of osteogenesis in hind-limb unloading Sprague-Dawley rat model assessed as increase in ALP fluorescent area at 5 uM/kg, ip administered on day 1, 4, 7, 10, 13 and measured on day 14 by immunofluorescence based analysis; format: functional, organism-based; details: time 14.0 day, tested as the 2H-labelled form
[22] = target: T2, Piezo-type mechanosensitive ion channel component 1; assay: Agonist activity at mouse Piezo1 transfected in HEK293T cells expressing PZ1 mutant by fluorescence based assay; format: cell-based
Target sequence in this assay (E2JF22 whole entry, looked up): as the sequence (E2JF22 whole entry) above

[23] = target: T1, Piezo-type mechanosensitive ion channel component 1; assay: Agonist activity at human Piezo1 transfected in HEK293T cells by FLIPR assay; format: cell-based

Sequence of Piezo-type mechanosensitive ion channel component 1 (Mus musculus) (E2JF22 whole entry): as above
T1 sequence (Q92508 whole entry): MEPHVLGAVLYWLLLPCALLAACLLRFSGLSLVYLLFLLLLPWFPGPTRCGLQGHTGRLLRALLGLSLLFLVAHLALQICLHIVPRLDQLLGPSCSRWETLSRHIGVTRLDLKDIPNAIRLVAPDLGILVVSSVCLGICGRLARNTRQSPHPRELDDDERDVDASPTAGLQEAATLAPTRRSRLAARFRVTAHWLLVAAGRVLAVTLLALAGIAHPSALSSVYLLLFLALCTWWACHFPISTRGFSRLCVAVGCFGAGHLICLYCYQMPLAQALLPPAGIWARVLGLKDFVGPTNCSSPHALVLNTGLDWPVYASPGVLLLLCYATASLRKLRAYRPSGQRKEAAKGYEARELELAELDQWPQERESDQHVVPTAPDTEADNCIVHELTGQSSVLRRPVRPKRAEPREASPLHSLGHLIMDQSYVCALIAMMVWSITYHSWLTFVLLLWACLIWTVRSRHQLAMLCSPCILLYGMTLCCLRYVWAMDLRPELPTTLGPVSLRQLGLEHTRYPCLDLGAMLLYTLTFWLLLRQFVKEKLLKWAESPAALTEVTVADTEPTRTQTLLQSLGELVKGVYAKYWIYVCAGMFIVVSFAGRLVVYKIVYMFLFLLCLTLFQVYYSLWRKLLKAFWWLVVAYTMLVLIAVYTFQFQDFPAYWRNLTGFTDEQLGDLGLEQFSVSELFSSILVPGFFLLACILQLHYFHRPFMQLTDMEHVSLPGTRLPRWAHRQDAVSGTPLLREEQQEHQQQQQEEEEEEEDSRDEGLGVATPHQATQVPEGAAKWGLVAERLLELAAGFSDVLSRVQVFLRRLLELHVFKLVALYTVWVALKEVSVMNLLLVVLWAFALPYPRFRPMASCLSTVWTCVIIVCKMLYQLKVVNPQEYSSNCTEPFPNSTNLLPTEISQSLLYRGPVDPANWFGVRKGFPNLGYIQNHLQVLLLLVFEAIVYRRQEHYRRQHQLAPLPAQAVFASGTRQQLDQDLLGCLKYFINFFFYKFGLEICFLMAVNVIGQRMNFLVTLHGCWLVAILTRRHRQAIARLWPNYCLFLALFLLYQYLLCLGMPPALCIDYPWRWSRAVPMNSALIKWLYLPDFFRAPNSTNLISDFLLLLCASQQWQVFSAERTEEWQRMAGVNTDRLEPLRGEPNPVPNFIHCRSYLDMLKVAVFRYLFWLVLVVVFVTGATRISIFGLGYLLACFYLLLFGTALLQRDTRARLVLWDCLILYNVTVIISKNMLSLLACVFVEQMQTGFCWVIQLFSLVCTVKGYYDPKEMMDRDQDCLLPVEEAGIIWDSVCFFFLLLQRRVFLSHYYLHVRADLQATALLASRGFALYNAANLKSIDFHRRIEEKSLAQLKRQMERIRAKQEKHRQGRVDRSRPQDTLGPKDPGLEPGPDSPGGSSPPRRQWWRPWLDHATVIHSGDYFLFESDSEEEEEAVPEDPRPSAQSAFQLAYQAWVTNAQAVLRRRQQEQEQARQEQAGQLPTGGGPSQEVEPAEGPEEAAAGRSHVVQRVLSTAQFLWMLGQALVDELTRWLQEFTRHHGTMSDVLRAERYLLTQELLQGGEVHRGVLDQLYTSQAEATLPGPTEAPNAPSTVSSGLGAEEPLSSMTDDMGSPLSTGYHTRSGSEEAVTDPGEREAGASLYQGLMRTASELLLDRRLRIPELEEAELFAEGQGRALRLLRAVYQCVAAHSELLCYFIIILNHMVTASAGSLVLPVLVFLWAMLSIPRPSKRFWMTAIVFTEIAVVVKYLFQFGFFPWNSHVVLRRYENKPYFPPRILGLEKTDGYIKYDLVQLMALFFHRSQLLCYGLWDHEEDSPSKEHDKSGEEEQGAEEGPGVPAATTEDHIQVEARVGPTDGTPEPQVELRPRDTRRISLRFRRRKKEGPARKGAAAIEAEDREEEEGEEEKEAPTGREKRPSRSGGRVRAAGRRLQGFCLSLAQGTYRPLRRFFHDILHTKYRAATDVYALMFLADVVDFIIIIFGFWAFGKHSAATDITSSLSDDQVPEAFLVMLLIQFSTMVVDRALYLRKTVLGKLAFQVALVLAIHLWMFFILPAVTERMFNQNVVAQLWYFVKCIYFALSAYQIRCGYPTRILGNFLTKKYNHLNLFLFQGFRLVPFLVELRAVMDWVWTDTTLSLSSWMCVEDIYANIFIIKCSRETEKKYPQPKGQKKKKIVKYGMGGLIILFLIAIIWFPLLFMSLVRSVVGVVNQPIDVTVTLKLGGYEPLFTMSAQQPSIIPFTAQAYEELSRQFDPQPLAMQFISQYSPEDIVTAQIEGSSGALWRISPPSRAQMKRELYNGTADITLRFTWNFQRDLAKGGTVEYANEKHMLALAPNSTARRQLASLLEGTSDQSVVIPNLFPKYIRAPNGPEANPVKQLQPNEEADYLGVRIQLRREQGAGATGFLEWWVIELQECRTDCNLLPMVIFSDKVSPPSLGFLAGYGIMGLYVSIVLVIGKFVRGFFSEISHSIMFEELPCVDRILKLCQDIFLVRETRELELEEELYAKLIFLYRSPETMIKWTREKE

Percent change in calcium fluorescence ratio relative to control [1] [%] | Percent change in calcium fluorescence ratio relative to control ([1]; filed as agonist) [%] | Structure (SMILES) | other results
0.1 | – | Clc1cccc(Cl)c1CSc1nnc(-c2cnc(N3CC4(COC4)C3)cn2)s1 | –
– | 76.6 | C[C@H](O)CNc1cnc(-c2nnc(SCc3c(Cl)cccc3Cl)s2)cn1 | –
16.1 | – | CC1(O)CN(c2cnc(-c3nnc(SCc4c(Cl)cccc4Cl)s3)cn2)C1 | –
– | 41.7 | C[C@@H](O)CNc1ncc(-c2nnc(SCc3c(Cl)cccc3Cl)s2)cn1 | –
2 | – | OC1CCN(c2cnc(-c3nnc(SCc4c(Cl)cccc4Cl)s3)cn2)CC1 | –
– | 74.5 | O[C@@H]1CN(c2cnc(-c3nnc(SCc4c(Cl)cccc4Cl)s3)cn2)C[C@@H]1O | –
30.4 | – | O[C@H]1CCN(c2cnc(-c3nnc(SCc4c(Cl)cccc4Cl)s3)cn2)C1 | –
– | 49.7 | C[C@@H](O)CNc1cncc(-c2nnc(SCc3c(Cl)cccc3Cl)s2)n1 | –
– | 56.3 | OCCOCCNc1cnc(-c2nnc(SCc3c(Cl)cccc3Cl)s2)cn1 | –
36 | – | OC1CN(c2cnc(-c3nnc(SCc4c(Cl)cccc4Cl)s3)cn2)C1 | –
– | 65.2 | OCCCNc1cnc(-c2nnc(SCc3c(Cl)cccc3Cl)s2)cn1 | –
-8 | – | FC1(F)CN(c2cnc(-c3nnc(SCc4c(Cl)cccc4Cl)s3)cn2)C1 | –
– | 106 | C[C@@H](O)CNc1cnc(-c2nnc(SCc3c(Cl)cccc3Cl)s2)cn1 | Percent change in calcium fluorescence ratio relative to control ([1]; filed as agonist, tested as the 2H-labelled form): 170%; Ratio EC50 [14]: 20; Activity (BMSC [15]): Dose-dependent-effect; Activity (BMSC [16]): Active; Activity [17]: Active; The Result Indicates That Compound Emulates Mechanical Stimulation To Activate Piezo1; Activity (Rattus norvegicus [18]): Active; Activity (Rattus norvegicus [19]): Active; Activity (Rattus norvegicus [20]): Active; Activity (Rattus norvegicus [21]): Active; Activty Reached Almost That Of The Weight-Bearing
– | 45.4 | CC(C)(O)[C@H](F)CNc1cnc(-c2nnc(SCc3c(Cl)cccc3Cl)s2)cn1 | –
– | 77.3 | O=C1CC2(CCN(c3cnc(-c4nnc(SCc5c(Cl)cccc5Cl)s4)cn3)CC2)CN1 | –
30.7 | – | Clc1cccc(Cl)c1CSc1nnc(-c2cnccn2)s1 | EC50 [23]: 17.1 µM; EC50 [3]: 2.21 µM; half-life at 10 µM [4]: < 5 min; half-life at 10 µM [5]: 5.55 min; half-life at 10 µM [6]: 1.33 min; microsomal CLint at 10 µM [7]: > 277 µL/min/mg; microsomal CLint at 10 µM [8]: 250 µL/min/mg; microsomal CLint at 10 µM [9]: 1040 µL/min/mg; solubility at 10 min [10]: 3.9 µM (≈ 1.39 µg/mL); Papp [11]: 38 ×10⁻⁶ cm/s
8 | – | Clc1cccc(Cl)c1CSc1nnc(-c2cnc(Br)cn2)s1 | –
– | 71.3 | C[C@@H](O)CNc1ccc(-c2nnc(SCc3c(Cl)cccc3Cl)s2)nn1 | –
11.6 | – | OCC1CN(c2cnc(-c3nnc(SCc4c(Cl)cccc4Cl)s3)cn2)C1 | –

More lines, now with the values behind:

Structure (SMILES) | Percent change in calcium fluorescence ratio relative to control [1] [%] | Percent change in calcium fluorescence ratio relative to control ([1]; filed as agonist) [%] | other results
C[C@@H](O)CNc1cnc(-c2nnc(SCc3c(Cl)ccc(F)c3Cl)s2)cn1 | – | 91.4 | –
C[C@@H](O)CNc1cnc(-c2nnc(SC(c3c(Cl)cccc3Cl)C3CC3)s2)cn1 (stereo partly drawn) | – | 64.6 | –
Cn1nnc2ccc(CSc3nnc(-c4cnc(N5CCC6(CC5)CNC(=O)C6)cn4)s3)cc21 | 38.8 | – | –
C[C@@H](O)CNc1cnc(-c2nnc(SCc3ccc4c(cnn4C)c3)s2)cn1 | – | 73.5 | –
O=C1CC2(CCN(c3cnc(-c4nnc(SCc5ccc6ncoc6c5)s4)cn3)CC2)CN1 | 31.2 | – | –
C[C@@H](O)CNc1cnc(-c2nnc(SCc3ccc4ncoc4c3)s2)cn1 | – | 50.4 | –
CCC(Sc1nnc(-c2cnc(NC[C@@H](C)O)cn2)s1)c1c(Cl)cccc1Cl (stereo partly drawn) | – | 91.3 | –
O=C(O)c1ccc(-c2nnc(SCc3c(Cl)cccc3Cl)s2)cc1 | – | – | Ratio EC50 [2]: 4
FC(F)(F)c1cccc(Cl)c1CSc1nnc(-c2cnccn2)o1 | – | – | Ratio EC50 [2]: 1.25
C[C@@H](O)CNc1cnc(-c2nnc(SCc3ccccc3Cl)s2)cn1 | – | 61.9 | –
CC(Sc1nnc(-c2cnc(NC[C@@H](C)O)cn2)s1)c1c(Cl)cccc1Cl (stereo partly drawn) | – | 164 | –
[2H]C([2H])(Sc1nnc(-c2cnc(NC[C@@H](C)O)cn2)s1)c1c(Cl)cccc1Cl | – | – | EC50 [3]: 44.2 µM; half-life at 10 µM [4]: 15.7 min; half-life at 10 µM [5]: 16.7 min; half-life at 10 µM [6]: 25.5 min; microsomal CLint at 10 µM [7]: 88.4 µL/min/mg; microsomal CLint at 10 µM [8]: 83.2 µL/min/mg; microsomal CLint at 10 µM [9]: 54.4 µL/min/mg; solubility at 10 min [10]: 57.9 µM (≈ 24.9 µg/mL); Papp [11]: 21 ×10⁻⁶ cm/s; Activity [12]: Non-toxic; Activity [13]: Non-toxic
C[C@@H](O)CNc1cnc(-c2nnc(SCc3c(Cl)ccnc3Cl)s2)cn1 | – | 69.7 | –
Cc1nnc(CNC(=O)Nc2ccc(C3CCCCC3)cc2)o1 | – | – | EC50 [22]: > 150 µM
C[C@@H](O)CNc1cnc(-c2nnc(SCc3ccc4nnn(C)c4c3)s2)cn1 | 35.4 | – | –
Cn1ncc2cc(CSc3nnc(-c4cnc(N5CCC6(CC5)CNC(=O)C6)cn4)s3)ccc21 | – | 71.6 | –
C[C@@H](O)CNc1cnc(-c2nnc(SCc3c(F)cccc3F)s2)cn1 | 21 | – | –
O=C1CC2(CCN(c3cnc(-c4nnc(SCc5ccc6scnc6c5)s4)cn3)CC2)CN1 | 7.7 | – | –
NC1=NC(=O)[C@H](CC(=O)Nc2ccc(SC(F)F)cc2)S1 | – | – | EC50 [22]: 12.9 µM
C[C@@H](O)CNc1cnc(-c2nnc(SCc3ccc4scnc4c3)s2)cn1 | 15.4 | – | –
